The values that follow are results of earlier work, collected in patent publication US4127533A, “Novel octapeptides, intermediates therefor, and compositions and methods employing said octapeptides” (priority 1977, dated 1978).

For series [1], the system named is brain opiate receptor sites.
A further series relates to rat. As to conditions: injected directly into the brain of the rat.

As for “H-Tyr-Gly-Gly-Phe-Met-OH [methionine enkephalin]”, the “binding to partially purified brain opiate receptor sites” value in series [1] is “binds stereo-specifically”. Besides, the analgesic activity entry with rat is on record as “only weak analgesic agent of short duration”.
